The structures appear in SMILES notation. pIC50: −log10 of the molar value.

This test has as its target T1, Type II 5α-reductase from human prostate (Homo sapiens, UniProt P31213).
T1 construct: Human prostate tissue from prostate surgeries was obtained immediately after surgery, frozen on dry ice; from tissue; host or cells: human prostate tissue from surgery; homogenate, 100,000 x g pellet resuspended
T1 sequence (P31213 1-254): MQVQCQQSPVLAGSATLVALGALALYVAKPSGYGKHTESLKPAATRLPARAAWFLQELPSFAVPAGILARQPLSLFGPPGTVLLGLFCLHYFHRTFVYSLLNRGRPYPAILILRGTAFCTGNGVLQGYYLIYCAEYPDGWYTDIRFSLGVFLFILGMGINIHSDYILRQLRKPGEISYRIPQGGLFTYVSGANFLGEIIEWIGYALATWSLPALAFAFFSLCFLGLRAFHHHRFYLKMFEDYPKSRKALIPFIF
As to the kind of experiment: Human Type II steroid 5α-reductase assay (conversion of [3H]-testosterone to DHT). The class given is biochemical. Particulars: human prostate enzyme preparation, 50 nM [3H]-testosterone, pH 5.5, 30 min at 25°, compared to control reaction mixtures; read-out: 50% inhibitory concentration. The protocol:
Methodology of Human Type II Steroid 5α-Reductase Assays
Preparation of Type II 5α-Reductase from Human Prostate:
Human prostate tissue from prostate surgeries was obtained immediately after surgery, frozen on dry ice and stored at -80° C. The tissue was frozen with liquid nitrogen and pulverized to powder. The powder was homogenized in ice-cold buffer (20 mM sodium phosphate, pH 6.5) using a Brinkmann Polvtron (Westbury, N.Y.) with a PTA 10-S probe and a setting of 7. The homogenization procedure consisted of four 15 second pulses. Connective tissue was cleared from the probe with forceps between pulses. […]
This enzyme assay is based on the conversion of [^3 H]-testosterone to [^3 H]-5α-dihydrotestosterone (DHT) and other 5α-reduced metabolites. […] Essentially no androsterone was detected. […]
The [^3 H]-testosterone substrate and its metabolites were separated by chromatography using a C-18 reversed phase column (Beckman Ultrasphere 5 μm spherical 80A pore, part no. 235329, 4.6 mm i.d..div.25 mm length) with an isocratic mobile phase (46 water: 46 methanol: 8 tetrahydrofuran by volume). […] A 400 μl aliquot was injected onto the column and radioactivity was determined using a Beckman 171 in-line flow radioisotope detector in conjunction with Rainin Dynamax™ software and a Macintosh computer. […]

Take `C[C@]12CCC(c3nnn[nH]3)=CC1=CCc1cc(Cl)ccc12` [Example 2, (-)-2-Chloro-4b-methyl-4b,5,6,10-tetrahydrophenanthrene-7-(1-tetrazole)]: the pIC50 was 6.22.
As to `C[C@]12CCC(C(=O)O)=CC1=CCc1cc(Cl)ccc12` [Example 1, (-)-2-Chloro-4b-methyl-4b,5,6,10-tetrahydrophenanthrene-7-carboxylic acid], the pIC50 is 6.82.

These data come from patent US5430157A, “Reduced phenanthrenes” (Eli Lilly and Company, priority 1993, dated 1995).
